Data: patent US20210094922A1, “Dyes for Analysis of Soluble Protein Aggregates or Misfolded Protein Oligomers” (The Penn State Research Foundation, priority 2018, published 2021)
“Also recorded” adds a separate entry of the source.

Assays:
[1] = Photophysical parameters of fluorophores in glycerol; format: physicochemical
Protocol: FP analogues (20 μM) were prepared in glycerol:H2O mixture with increasing glycerol concentrations. In addition, fluorescence intensity in 1,4-dioxane was measured to evaluate their response to polarity. Fluorescence measurement was carried out using a Tecan infinite M1000Pro fluorescence microplate reader at excitation and emission wavelengths as indicated. All readings were normalized against the fluorescence intensity in 100% glycerol as 1. Error bars: standard error (n=3).
FP analogues (20 μM) were prepared in glycerol. Spectra were collected with emission wavelength of 420 nm for 1, 525 nm for 2, 620 nm for 3, 3a and 3b. All measurements were carried out using a Tecan infinite M1000Pro fluorescence microplate reader.
FP analogues (20 μM) were prepared in glycerol. Spectra were collected with excitation wavelength of 370 nm for 1, 455 nm for 2, 530 nm for 3 and 3b, 485 nm for 3a. All measurements were carried out using a Tecan infinite M1000Pro fluorescence microplate reader.
FP analogues (10 μM) were prepared in glycerol. Spectra were collected with 10 mm quartz cuvette. All measurements were carried out using Agilent 300 UV-Vis spectrophotometer.
However, the quantum yield (QY, Φ=0.001 for 1 and Φ=0.027 for 2 in glycerol, Table 2) was much lower than that of a GFP (Φ=0.79).

SOD1-A4V-Halo = SOD1-A4V-Halo (Homo sapiens, UniProt P00441, A5V); experiment: Two-color imaging of SOD1-A4V-Halo in HEK293T cells under MG132; format: cell-based; parameters: expressed in transfected cells; host or cells: HEK293T; details: 4 and 5 both at 0.5 μM, 5 μM MG132 for 8 h
Source text: (B-C) Excitation and emission spectra of 4 (with misfolded oligomers of SOD1-A4V-Halo) and 5 (with insoluble aggregates of SOD1-A4V-Halo).
Combination of 4 and 5 enables a two-color imaging strategy to differentiate insoluble aggregates from soluble oligomers. The inventors carried out live cell imaging experiments, wherein 4 or 5 was used to visualize aggregation of POI-Halo fusion proteins in HEK293T cells. […] To this end, the inventors labeled HEK293T cells expressing SOD1-A4V-Halo simultaneously with 4 and 5 (both at 0.5 μM) for 24 h and treated cells with 5 μM MG132 for 8 h. […] The inventors further carried out experiments using Htt-PolyQ with 110 glutamine repeats (Htt-110Q-Halo).

SOD1(V31A)-Halo [2] = biological target: SOD1(V31A)-Halo (Rhodococcus rhodochrous, UniProt P0A3G2, A155T/A167V/A172T/A224E/C128F/C176G/D78G/E160K/E257K/H272N/K175M/K195N/L47V/L88M/N227D/P291S/S58T/T264A/Y273L/Y87F); experiment: AggTag imaging of NaAsO2-induced SOD1(V31A)-Halo aggregation in HEK293T cells; format: cell-based, human; parameters: expressed in transfected cells; host or cells: HEK293T
Protocol: (§1) During protein expression, medium is supplemented with 1 μM of coumarin ligand and 1 μM of 4 to enable a simultaneous dual-probe labeling to Halo-Tag. Note: Halo-Tag locates in both cytoplasm and nucleus. Blue: fluorescence from the Halo-Tag⋅coumarin conjugate. Red: fluorescence from the Halo-Tag-4 conjugate. Scale bar: 10 μm.
(§2) Confocal microscope imaging. The HEK293T cells were seeded at 25% confluency 24 h prior to transfection in poly-D-lysine coated 35 mm glass bottom dishes (MatTek Corporation). Cells were grown in DMEM media supplemented with 10% FBS and Penicillin-Streptomycin antibiotics until they reached 50-60% confluency. Transfection was carried out using X-tremeGene™ 9 DNA transfection reagent (Roche) according to the manufacturer's instructions. Proteins were expressed for 24 h prior to analyses. To label proteins with Halo-Tag fusion, protein expression was carried out in the presence of 1 μM 4 or 1 μM TMR Halo-Tag ligand to form covalent conjugate with the Halo-Tag domain. For a dual-probe labeling scheme, 1 μM 4 and 1 μM coumarin Halo-Tag ligand to simultaneously form covalent conjugate with the Halo-Tag domain.
(§3) HEK293T cultures were seeded at 25% confluency 24 h prior to transfection in 12-well plate for time dependent fluorescence plate reader analysis or 35 mm glass bottom culture dishes (Poly-d-lysine coated, MatTek Corporation). Cells were grown in DMEM medium supplemented with 10% FBS and penicillin-streptomycin antibiotics until they reached 50-60% confluency. Transfection was performed using X-tremeGene™ 9 DNA transfection reagent (Roche). After 24 h of protein expression and co-translational labeling, medium was replaced with fresh DMEM to diffuse out unbound ligands. After 30 min, media was replaced by fresh DMEM medium containing DMSO vehicle or NaAsO2 (50 μM). […] At indicated time points, fluorescence reading was obtained using a Tecan M1000Pro fluorescence plate reader. Fluorescence intensity was recorded at Ex=530 nm/Em=600 nm for 3 and Ex=450 nm/Em=480 nm for ThT. […] Fluorescence of 3 was measured at Ex=530 nm/Em=600 nm.

SOD1(V31A)-Halo [3] = biological target: SOD1(V31A)-Halo (UniProt P00441+P0A3G2, A155T/A167V/A172T/A224E/C128F/C176G/D78G/E160K/E257K/H272N/K175M/K195N/L47V/L88M/N227D/S58T/T264A/V32A/Y273L/Y87F); experiment: as above; format: cell-based, human; parameters: expressed in transfected cells; host or cells: HEK293T; details: NaAsO2
Protocol: as §1, §2, §3

Chain of SOD1(V31A)-Halo (Rhodococcus rhodochrous, UniProt P0A3G2, A155T/A167V/A172T/A224E/C128F/C176G/D78G/E160K/E257K/H272N/K175M/K195N/L47V/L88M/N227D/P291S/S58T/T264A/Y273L/Y87F) (P0A3G2 other isoform, or with tags, fused parts or gaps with the stated changes): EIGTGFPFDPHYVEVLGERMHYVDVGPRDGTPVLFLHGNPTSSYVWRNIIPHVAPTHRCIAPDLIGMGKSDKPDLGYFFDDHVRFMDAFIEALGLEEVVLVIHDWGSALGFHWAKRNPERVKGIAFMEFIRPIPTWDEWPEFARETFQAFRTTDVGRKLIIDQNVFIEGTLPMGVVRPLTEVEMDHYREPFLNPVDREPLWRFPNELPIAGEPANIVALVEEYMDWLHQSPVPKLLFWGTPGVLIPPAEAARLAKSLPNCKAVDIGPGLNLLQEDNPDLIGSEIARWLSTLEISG
Chain of SOD1-A4V-Halo (P00441 with tags, fused parts or gaps A5V limits assumed): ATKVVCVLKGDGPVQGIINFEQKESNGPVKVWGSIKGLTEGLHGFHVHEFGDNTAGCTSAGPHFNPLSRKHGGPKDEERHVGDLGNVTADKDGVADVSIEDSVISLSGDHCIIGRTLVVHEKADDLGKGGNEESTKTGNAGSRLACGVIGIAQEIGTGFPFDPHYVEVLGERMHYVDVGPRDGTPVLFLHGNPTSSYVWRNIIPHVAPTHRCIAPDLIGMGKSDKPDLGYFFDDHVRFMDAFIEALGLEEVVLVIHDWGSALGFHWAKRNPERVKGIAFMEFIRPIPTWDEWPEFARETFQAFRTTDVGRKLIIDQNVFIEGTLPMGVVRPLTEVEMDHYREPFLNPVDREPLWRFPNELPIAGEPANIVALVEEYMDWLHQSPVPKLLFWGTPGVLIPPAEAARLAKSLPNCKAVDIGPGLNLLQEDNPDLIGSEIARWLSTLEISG
Chain of SOD1(V31A)-Halo (UniProt P00441+P0A3G2, A155T/A167V/A172T/A224E/C128F/C176G/D78G/E160K/E257K/H272N/K175M/K195N/L47V/L88M/N227D/S58T/T264A/V32A/Y273L/Y87F) (P00441+P0A3G2 fused with the stated changes): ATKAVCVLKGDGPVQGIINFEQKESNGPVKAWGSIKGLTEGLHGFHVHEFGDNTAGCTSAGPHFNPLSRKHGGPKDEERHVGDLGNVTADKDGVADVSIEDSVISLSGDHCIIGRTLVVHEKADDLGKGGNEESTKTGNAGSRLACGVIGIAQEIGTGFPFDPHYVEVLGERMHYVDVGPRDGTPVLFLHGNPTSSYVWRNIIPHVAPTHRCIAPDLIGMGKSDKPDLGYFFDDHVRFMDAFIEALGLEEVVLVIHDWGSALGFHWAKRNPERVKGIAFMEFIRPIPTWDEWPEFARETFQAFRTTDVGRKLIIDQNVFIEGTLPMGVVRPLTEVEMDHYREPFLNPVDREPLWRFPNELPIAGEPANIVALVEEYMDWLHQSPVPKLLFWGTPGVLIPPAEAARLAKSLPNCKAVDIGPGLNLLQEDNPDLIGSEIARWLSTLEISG

Compound: CN(C)c1ccc(/C=C2N=C(/C=C/c3ccc(N(CCO)CCO)cc3)N(CC(=O)N[C@H]3CC[C@H](C(=O)NCCOCCOCCCCCCCl)CC3)C\2=O)cc1 [Compound 4, (1r,4r)-4-(2-((Z)-2-((E)-4-(bis(2-hydroxyethyl)amino)styryl)-4-(4-(dimethylamino)benzylidene)-5-oxo-4,5-dihydro-1H-imidazol-1-yl)acetamido)-N-(2-(2-((6-chlorohexyl)oxy)ethoxy)ethyl)cyclohexanecarboxamide]
- fluorescent properties of 4 compared with 3 [1]: identical to 3
- B (brightness) ([1]; calculated using B = Φϵ): 8,734 M^−1cm^−1
- Φ (quantum yield) ([1]; in glycerol): 0.230
- λem ([1]; in glycerol): 628 nm
- λex ([1]; in glycerol): 530 nm
- λabs ([1]; maximum absorbance measured in glycerol): 534 nm
- ϵ (extinction coefficient) ([1]; measured in glycerol): 36,241 M^−1cm^−1
- fluorescence of perinuclear SOD1 A4V-Halo granules (SOD1-A4V-Halo): only exhibited red fluorescence from 4
- fluorescence in cells co-expressing Halo-Tag and SOD1-V31A-GFP (SOD1(V31A)-Halo [2]; NaAsO2 stressor 50 μM, 18 h, 37° C.): turn-on fluorescence was not observed
- fluorescence in cells expressing Halo-Tag alone under stress (SOD1(V31A)-Halo [2]; NaAsO2 stressor, Halo-4 conjugate): remained dark in stressed cells; also recorded: fluorescence was not observed
- fluorescence of SOD1(V31A)-Halo labeled cells before and after stress (SOD1(V31A)-Halo [3]): dark before stress but exhibited both diffuse and punctate fluorescent structures in stressed cells
